Publication PMC6325219, “Preclinical Characterization of NVR 3-778, a First-in-Class Capsid Assembly Modulator against Hepatitis B Virus” (Antimicrobial Agents and Chemotherapy, 2018)
Where “and” joins values, the source holds several entries; their conditions need not be identical. Equal entries are not always repeated. Entries after “also recorded” stand apart in the source; their conditions may differ. Where two headings read alike, the source gives them in different places. Marks after values point to notes of the source that are not given here.

Legend:
HBV = test: Antiviral studies using HepG2.2.15 cells (HBV DNA and HBV RNA readouts); type: cell-based, hepatitis B virus (GT D); conditions: for Effect on secreted HBV RNA, single drug: 6 days, increasing concentrations; for EC50: Hepatitis B virus
Procedure: (§1) In combination studies, cells were treated with compounds either alone or in combination after combining the compounds in a checkerboard format. In studies examining the effect of human serum, serially diluted NVR 3-778 was added into cell culture medium containing 0% to 40% human serum (BioreclamationIVT). Cells were incubated with the compounds for 3 days, after which the medium was removed, fresh medium containing the compounds was added to the cells, and the cells were incubated for another 3 days prior to harvesting of the supernatants or cells for antiviral assays. To quantify intracellular encapsidated rcDNA or encapsidated pgRNA, cells were first solubilized using lysis buffer containing 1% NP-40 and 10 mM CaCl2. The cytoplasmic fraction was then treated with S7 nuclease (6 units) to remove nonencapsidated nucleic acids, after which the S7 nuclease was inactivated by the addition of EDTA (0.5 M). […] The levels of HBV DNA were determined by a bDNA assay as described above (Affymetrix). Supernatants or cell lysates containing HBV RNA were treated with proteinase K (2.5 µg) at 50°C for 40 min, transferred to a capture plate containing HBV RNA probe sets, and hybridized overnight at 55°C. Captured HBV RNA was measured by the addition of a chemiluminescent substrate using a QuantiGene assay (Affymetrix). […] At day 6, the CellTiter-Glo reagent was added to the cells and viability was determined according to the manufacturer’s protocol (Promega). Luminescence signals were measured at 0.2 s using a Victor X4 multimode plate reader (PerkinElmer).

[1] = Cell viability of HepG2.2.15 cells (ATP levels, CellTiter-Glo); type: cell-based; conditions: human, HepG2.2.15 cells, ATP levels, CellTiter-Glo
Procedure: as §1

HBV GT A = test: Transient-transfection antiviral study in HepG2 cells, GT A; type: cell-based; conditions: Hepatitis B virus, 72 h, 3 days, intracellular encapsidated rcDNA
Procedure: (§5) Cells were cotransfected with the HBV plasmids (100 ng/well) and a Gaussia expression plasmid (10 ng/well) (Thermo Scientific) using the Lipofectamine LTX Plus transfection reagent (Life Technologies). Transfection mixtures were removed after overnight incubation, and cells were treated with serially diluted NVR 3-778 at a final dimethyl sulfoxide (DMSO) concentration of 0.5%. After 3 days of incubation with the compound, the supernatants were collected and secreted Gaussia luciferase was measured using a Gaussia Flash luciferase assay kit (Thermo Scientific). […] Samples were diluted into lysis buffer (Affymetrix) containing 2.5 µg proteinase K (Affymetrix) at 50°C for 40 min. Intracellular encapsidated HBV DNA was denatured for 30 min at 25°C in 0.2 M NaOH (Sigma) and incubated with HBV DNA probes designed to hybridize to the minus-strand HBV DNA (Affymetrix). The denatured DNA was subsequently detected using a QuantiGene assay kit, according to the branched DNA (bDNA) assay recommended by the manufacturer (Affymetrix).

HBV GT G = test: Transient-transfection antiviral study in HepG2 cells, GT G; type: cell-based; conditions: Hepatitis B virus, HepG2, 72 h, read-out: EC50 (mean), HBV GT G
Procedure: as §5

[2] = test system: HBV isolates representing GT A to H; test: Transient-transfection antiviral study, panel of HBV isolates GT A to H (summary statements); type: cell-based, hepatitis B virus; conditions: EC50 values within this factor of each other
Procedure: as §5

[3] = test system: HBV rtA181V/N236T variant; type: cell-based, hepatitis B virus; conditions: ratio of mean EC50 against variant over WT HBV, HepG2 cells
Source text: (§2) Plasmids containing HBV DNA with rtN236T, rtA181V, rtA181V/N236T, and rtL180M/M204V/N236T were generated using the GT B WT or rtL180M/M204V DNA-containing plasmids and site-directed mutagenesis (Agilent Technologies). A panel of nine different HBV core variants (cW102G, cW102R, cI105V, cI105L, cI105T, cT109S, cT109M, cT109I, and cY118F) was generated, also using the GT B WT DNA-containing plasmid and site-directed mutagenesis. The full-length genome from all plasmids was sequenced to confirm that only the intended nucleotide change(s) was present. Finally, HBV sequences from genotypes A (GenBank accession number AF305422), C (GenBank accession number AB033550), D (GenBank accession number V01460), E (GenBank accession number AB274971), F (GenBank accession number AB036912), G (GenBank accession number AF160501), and H (GenBank accession number AB375159) were gene synthesized as 1.1 times the genome length together with part of the CMV promoter at the 5′ end. The gene-synthesized piece was validated by sequencing and subcloned into the pCMV-HBV plasmid using the restriction sites SalI and NdeI (Genewiz, USA).
(§3) HepG2 cells were seeded in 96-well plates at a density of 20,000 cells/well and allowed to attach overnight at 37°C in 5% CO2. Cells were cotransfected with the HBV plasmids (100 ng/well) and a Gaussia expression plasmid (10 ng/well) (Thermo Scientific) using the Lipofectamine LTX Plus transfection reagent (Life Technologies). Transfection mixtures were removed after overnight incubation, and cells were treated with serially diluted NVR 3-778 at a final dimethyl sulfoxide (DMSO) concentration of 0.5%. After 3 days of incubation with the compound, the supernatants were collected and secreted Gaussia luciferase was measured using a Gaussia Flash luciferase assay kit (Thermo Scientific). Cells were lysed with 0.33% NP-40 (Thermo Scientific), and the cytoplasmic fractions were treated with 2 units of Turbo DNase (Invitrogen) and 10 units of S7 nuclease (Roche) in CutSmart buffer (New England Biolabs) containing 25 µM CaCl2 (G-Biosciences) at 37°C for 60 min, followed by inactivation of the enzymes at 75°C for 15 min. Samples were diluted into lysis buffer (Affymetrix) containing 2.5 µg proteinase K (Affymetrix) at 50°C for 40 min. Intracellular encapsidated HBV DNA was denatured for 30 min at 25°C in 0.2 M NaOH (Sigma) and incubated with HBV DNA probes designed to hybridize to the minus-strand HBV DNA (Affymetrix). The denatured DNA was subsequently detected using a QuantiGene assay kit, according to the branched DNA (bDNA) assay recommended by the manufacturer (Affymetrix).
(§4) To determine percent inhibition, the mean background signal from wells containing only culture medium was subtracted from the signal for all other samples, and percent inhibition at each compound concentration was calculated by normalization to the signals for HepG2.2.15 cells treated with 0.5% DMSO. […] Both CalcuSyn and MacSynergy II (Ann Arbor, MI) software were used to evaluate the effect of compound combinations ([27]). After data analysis at the 95% confidence level, values of synergy or antagonism of <25 µM^2% were defined as insignificant, those between 25 and 50 µM^2% were defined as minor, those between 50 and 100 µM^2% were defined as moderate, and those of >100 µM^2% were defined as strong.

HBV rtN236T variant = type: cell-based, hepatitis B virus; conditions: ratio of mean EC50 against variant over WT HBV, HepG2 cells
Source text: as §2, §3, §4

[4] = test system: HBV core protein variant T109S; test: Transient-transfection antiviral study in HepG2 cells, core variant T109S; type: cell-based, hepatitis B virus
Procedure: as §5

[5] = Hepatocyte stability, human hepatocytes; type: in vitro ADME; conditions: 120 min incubation
Procedure: Following in vitro incubation for 120 min with human, mouse, or dog hepatocytes, >85% of the NVR 3-778 remained intact. […] The fewest number of metabolites was found following incubation with human hepatocytes, where 92% of the NVR 3-778 remained after a 120-min incubation.

[6] = design: method as in PMID 29079518; conditions: humanized mice; cited from earlier work
HBV (GT C) = test system: HBV (GT C); design: method as in PMID 29079518; conditions: cited from earlier work

What does the source list for `O=C(Nc1cc(F)c(F)c(F)c1)c1ccc(F)c(S(=O)(=O)N2CCC(O)CC2)c1` [NVR 3-778]?
Effect on secreted HBV RNA, single drug (HBV; HepG2.2.15 cells): inhibited the production of secreted HBV RNA; EC50 (HBV; HepG2.2.15 cells, QuantiGene assay, read-out: EC50, intracellular encapsidated pgRNA (mean)): 0.44 µM; EC50 (HBV; HepG2.2.15 cells, branched DNA assay, read-out: EC50, intracellular encapsidated rcDNA (mean)): 0.34 µM; EC50 (HBV; HepG2.2.15 cells, supernatant, read-out: EC50, secreted HBV DNA (mean)): 0.4 µM; EC50 (HBV; HepG2.2.15 cells, supernatant, read-out: EC50, secreted HBV RNA (mean)): 0.6 µM; CC50 at 6 days [1]: 14.5 µM; EC50 (HBV GT A): 0.38 µM; EC50 (HBV GT G): 0.25 µM; Spread of EC50 values against HBV DNA replication across GT A to H isolates [2]: ≤ 3 fold; EC50 fold change, rtA181V/N236T [3]: 0.85 ± 0.26^d fold; EC50 fold change, rtN236T (HBV rtN236T variant): 0.85 ± 0.40^d fold; EC50 ([4]; Hepatitis B virus, HepG2, read-out: EC50, core variant T109S): 0.77 ± 0.27 µM; EC50 FC, T109S ([4]; ratio of mean EC50 for core variant over wild-type HBV): 3.3 fold; NVR 3-778 remaining intact [5]: > 85% and 92%; Plasma trough concentrations, all mice [6]: at least 3 µM; Antiviral activity compared with ETV (HBV (GT C); HBV-infected humanized mice, 405 mg/kg BID): antiviral activity similar to that of the nucleoside analog ETV; Reduction of serum HBV DNA and HBV RNA, combination with pegIFN versus NVR 3-778 alone, pegIFN alone or entecavir alone (HBV (GT C); HBV-infected humanized mice): greater reduction in both serum HBV DNA and HBV RNA levels; Effect on serum HBV DNA and HBV RNA levels (HBV (GT C); humanized mice infected with GT C HBV): effective at reducing both serum HBV DNA and HBV RNA levels; also recorded: significant reductions in HBV DNA and secreted HBV RNA levels

With `Nc1ccn([C@@H]2CS[C@H](CO)O2)c(=O)n1` [LMV, lamivudine, reference compound] as the molecule, how does the “Effect on secreted HBV RNA, single drug” value (HBV; HepG2.2.15 cells) read?
The value was “increased the production of secreted HBV RNA”.

And the EC50 (HBV; HepG2.2.15, values used as starting concentrations of the combination study, read-out: EC50 against HBV DNA replication in HepG2.2.15 cells)?
Its EC50 is 0.15 µM.
